Changes are numbered by the printed parent chain. Values joined by “and” are separate entries in the source; they are usually repeats but may differ in a detail not shown here. Identical values can stand only once.
Columns and labels:
Nluc-A3AR V169E^45.53 = target: T1, Nluc-A3AR V169E^45.53 (Homo sapiens, UniProt P0DMS8, V169E); assay: biochemical; format: binding; conditions: V169E, read-out: normalised XAC-630 binding
T1 construct: expressed in transfected cells; host or cells: HEK293a
Experimental: (§1) All experiments were performed in duplicate.
(§2) Data were expressed as the mean ± standard error. All binding and Trupath data were analysed using the nonlinear regression curve-fitting programme with Prism 10 (GraphPad, San Diego, CA, USA). For nanoBRET saturation binding experiments, specific binding was calculated by subtracting non-specific binding (defined as binding in the presence of 10 µM MRS1220) from total binding. Specific binding data in each experiment were then normalised to the maximal binding (Bmax) of WT and fit to a one-site specific binding equation: Y =Bmax*[X]/(Kd + [X]). For nanoBRET competition binding experiments, data were normalised to total and non-specific binding responses and fit to a one-site—Fit Ki equation. Trupath's experimental data was baseline-corrected to the initial four baseline reads and then adjusted to the buffer control response. The area under the curve (AUC) for each response was calculated and plotted with a non-linear regression curve (log[agonist] vs response, three-parameter model), using the equation: Y = Bottom + (Top–Bottom)/(1 + 10^((LogEC50-X))). Here, X represents the log dose of the agonist, Y is the BRET2 AUC response, Top and Bottom are the curve plateaus, and EC50 is the agonist concentration yielding a response halfway between the Bottom and Top values. […] Significant differences vs WT were determined by one-way ANOVA with a Dunnett’s multiple comparison test. Significance levels are indicated as follows: P ≤ 0.0001****, P = 0.0001–0.001***, P = 0.001–0.01**, and P = 0.01–0.05*.

Nluc-A3AR S73A^2.65 = target: T2, Nluc-A3AR S73A^2.65 (Homo sapiens, UniProt P0DMS8, S73A); assay: biochemical; format: binding; conditions: S73A, read-out: normalised XAC-630 binding
T2 construct: expressed in transfected cells; host or cells: HEK293a
Experimental: as §1
(§3) Data were expressed as the mean ± standard error. All binding and Trupath data were analysed using the nonlinear regression curve-fitting programme with Prism 10 (GraphPad, San Diego, CA, USA). For nanoBRET saturation binding experiments, specific binding was calculated by subtracting non-specific binding (defined as binding in the presence of 10 µM MRS1220) from total binding. Specific binding data in each experiment were then normalised to the maximal binding (Bmax) of WT and fit to a one-site specific binding equation: Y =Bmax*[X]/(Kd + [X]). For nanoBRET competition binding experiments, data were normalised to total and non-specific binding responses and fit to a one-site—Fit Ki equation. […] Significant differences vs WT were determined by one-way ANOVA with a Dunnett’s multiple comparison test.

Nluc-A3AR H95A^3.37 = target: T3, Nluc-A3AR H95A^3.37 (Homo sapiens, UniProt P0DMS8, H95A); assay: biochemical; format: binding; conditions: H95A, read-out: normalised XAC-630 binding
T3 construct: expressed in transfected cells; host or cells: HEK293a
Experimental: as §1, §2

Nluc-A3AR H95F^3.37 = target: T4, Nluc-A3AR H95F^3.37 (Homo sapiens, UniProt P0DMS8, H95F); assay: biochemical; format: binding; conditions: H95F; log[adenosine] -8; read-out: normalised XAC-630 binding
T4 construct: expressed in transfected cells; host or cells: HEK293a
Experimental: as §1, §2

Nluc-A3AR T94A^3.36 = target: T5, Nluc-A3AR T94A^3.36 (Homo sapiens, UniProt P0DMS8, T94A); assay: biochemical; format: binding; conditions: T94A, read-out: normalised XAC-630 binding
T5 construct: expressed in transfected cells; host or cells: HEK293a
Experimental: as §1
(§4) Data were expressed as the mean ± standard error. All binding and Trupath data were analysed using the nonlinear regression curve-fitting programme with Prism 10 (GraphPad, San Diego, CA, USA). For nanoBRET saturation binding experiments, specific binding was calculated by subtracting non-specific binding (defined as binding in the presence of 10 µM MRS1220) from total binding. Specific binding data in each experiment were then normalised to the maximal binding (Bmax) of WT and fit to a one-site specific binding equation: Y =Bmax*[X]/(Kd + [X]). For nanoBRET competition binding experiments, data were normalised to total and non-specific binding responses and fit to a one-site—Fit Ki equation. Trupath's experimental data was baseline-corrected to the initial four baseline reads and then adjusted to the buffer control response. The area under the curve (AUC) for each response was calculated and plotted with a non-linear regression curve (log[agonist] vs response, three-parameter model), using the equation: Y = Bottom + (Top–Bottom)/(1 + 10^((LogEC50-X))). Here, X represents the log dose of the agonist, Y is the BRET2 AUC response, Top and Bottom are the curve plateaus, and EC50 is the agonist concentration yielding a response halfway between the Bottom and Top values. […] The efficacy of the agonists (τA) was separately calculated using the Black–Leff operational model of agonism[79] using KA values from Table 2 and then corrected for receptor expression relative to WT using Bmax values from Table 1[80]. Significant differences vs WT were determined by one-way ANOVA with a Dunnett’s multiple comparison test.

Nluc-A3AR M174A^5.35 = target: T6, Nluc-A3AR M174A^5.35 (Homo sapiens, UniProt P0DMS8, M174A); assay: biochemical; format: binding; conditions: M174A, read-out: normalised XAC-630 binding
T6 construct: expressed in transfected cells; host or cells: HEK293a
Experimental: as §1, §4

Nluc-A3AR S271A^7.42 = target: T7, Nluc-A3AR S271A^7.42 (Homo sapiens, UniProt P0DMS8, S271A); assay: biochemical; format: binding; conditions: S271A, read-out: normalised XAC-630 binding
T7 construct: expressed in transfected cells; host or cells: HEK293a
Experimental: as §1, §3

Nluc-A3AR Y265A^7.36 = target: T8, Nluc-A3AR Y265A^7.36 (Homo sapiens, UniProt P0DMS8, Y265A); assay: biochemical; format: binding; conditions: Y265A, read-out: normalised XAC-630 binding
T8 construct: expressed in transfected cells; host or cells: HEK293a
Experimental: as §1, §4

A3AR H95F^3.37 = target: T9, A3AR H95F^3.37 (Homo sapiens, UniProt P0DMS8, H95F); assay: Gαi1 activation, TruPath BRET assay in HEK293a cells; format: cell-based
T9 construct: expressed in transfected cells; host or cells: HEK293a
T9 sequence (P0DMS8 1-318 H95F): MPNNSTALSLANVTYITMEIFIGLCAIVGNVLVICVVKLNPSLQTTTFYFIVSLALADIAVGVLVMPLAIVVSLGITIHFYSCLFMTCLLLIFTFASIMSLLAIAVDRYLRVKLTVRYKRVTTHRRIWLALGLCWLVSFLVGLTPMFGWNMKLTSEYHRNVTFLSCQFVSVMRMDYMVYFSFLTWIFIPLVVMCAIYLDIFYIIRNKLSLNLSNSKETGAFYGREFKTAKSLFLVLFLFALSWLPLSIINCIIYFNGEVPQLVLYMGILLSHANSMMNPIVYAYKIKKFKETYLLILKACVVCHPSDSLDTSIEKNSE
Experimental: (§5) PEI was added at a 6:1 PEI-to-DNA ratio. Two days post-transfection, plates were washed twice with BRET buffer (HBSS with 10 mM HEPES, pH 7.4). After a 30-min incubation at 37 °C, plates were placed in a PHERAstar plate reader at 37 °C, and four baseline readings were taken using BRET2 filters at 410 ± 80 nm and 515 ± 30 nm. […] BRET2 ratios were calculated as the ratio of GFP2 emission (515 ± 30 nm) to RLuc8 emission (410 ± 80 nm).
(§6) Data were expressed as the mean ± standard error. All binding and Trupath data were analysed using the nonlinear regression curve-fitting programme with Prism 10 (GraphPad, San Diego, CA, USA). For nanoBRET saturation binding experiments, specific binding was calculated by subtracting non-specific binding (defined as binding in the presence of 10 µM MRS1220) from total binding. Specific binding data in each experiment were then normalised to the maximal binding (Bmax) of WT and fit to a one-site specific binding equation: Y =Bmax*[X]/(Kd + [X]). For nanoBRET competition binding experiments, data were normalised to total and non-specific binding responses and fit to a one-site—Fit Ki equation. Trupath's experimental data was baseline-corrected to the initial four baseline reads and then adjusted to the buffer control response. The area under the curve (AUC) for each response was calculated and plotted with a non-linear regression curve (log[agonist] vs response, three-parameter model), using the equation: Y = Bottom + (Top–Bottom)/(1 + 10^((LogEC50-X))). Here, X represents the log dose of the agonist, Y is the BRET2 AUC response, Top and Bottom are the curve plateaus, and EC50 is the agonist concentration yielding a response halfway between the Bottom and Top values. To determine efficacy values. The efficacy of the agonists (τA) was separately calculated using the Black–Leff operational model of agonism[79] using KA values from Table 2 and then corrected for receptor expression relative to WT using Bmax values from Table 1[80]. Significant differences vs WT were determined by one-way ANOVA with a Dunnett’s multiple comparison test. Significance levels are indicated as follows: P ≤ 0.0001****, P = 0.0001–0.001***, P = 0.001–0.01**, and P = 0.01–0.05*.

Nluc-A3AR WT = target: T10, Nluc-A3AR WT (Homo sapiens, UniProt P0DMS8); assay: biochemical; format: binding; conditions: WT, read-out: normalised XAC-630 binding
T10 construct: expressed in transfected cells; host or cells: HEK293a
Experimental: as §1, §3

A3AR N250A^6.55 = target: T11, A3AR N250A^6.55 (Homo sapiens, UniProt P0DMS8, N250A); assay: Gαi1 activation, TruPath BRET assay in HEK293a cells; format: cell-based
T11 construct: expressed in transfected cells; host or cells: HEK293a
T11 sequence (P0DMS8 1-318 N250A): T9 sequence (P0DMS8 1-318 H95F) with F95H, N250A
Experimental: as §5, §6

Nluc-A3AR Y15A^1.35 = target: T12, Nluc-A3AR Y15A^1.35 (Homo sapiens, UniProt P0DMS8, Y15A); assay: biochemical; format: binding; conditions: Y15A; log[adenosine] -8; read-out: normalised XAC-630 binding
T12 construct: expressed in transfected cells; host or cells: HEK293a
T12 sequence (P0DMS8 whole entry Y15A): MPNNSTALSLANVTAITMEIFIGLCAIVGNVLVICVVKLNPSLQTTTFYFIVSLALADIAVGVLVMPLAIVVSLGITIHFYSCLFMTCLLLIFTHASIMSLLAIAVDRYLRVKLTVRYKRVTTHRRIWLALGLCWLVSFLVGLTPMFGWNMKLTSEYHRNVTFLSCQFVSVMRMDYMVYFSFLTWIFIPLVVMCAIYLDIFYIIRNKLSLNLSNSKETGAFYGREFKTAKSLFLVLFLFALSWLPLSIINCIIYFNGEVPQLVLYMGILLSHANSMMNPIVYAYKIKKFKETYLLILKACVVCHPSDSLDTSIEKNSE
Experimental: as §1, §4

T3 sequence (P0DMS8 whole entry H95A): as the sequence (P0DMS8 whole entry Y15A) above, with A15Y, H95A counted along it
T2 sequence (P0DMS8 whole entry S73A): as the sequence (P0DMS8 whole entry Y15A) above, with A15Y, S73A counted along it
T1 sequence (P0DMS8 whole entry V169E): as the sequence (P0DMS8 whole entry Y15A) above, with A15Y, V169E counted along it
T7 sequence (P0DMS8 whole entry S271A): as the sequence (P0DMS8 whole entry Y15A) above, with A15Y, S271A counted along it
T8 sequence (P0DMS8 whole entry Y265A): as the sequence (P0DMS8 whole entry Y15A) above, with A15Y, Y265A counted along it
T10 sequence (P0DMS8 whole entry): as the sequence (P0DMS8 whole entry Y15A) above, with A15Y counted along it
T5 sequence (P0DMS8 whole entry T94A): as the sequence (P0DMS8 whole entry Y15A) above, with A15Y, T94A counted along it
T6 sequence (P0DMS8 whole entry M174A): as the sequence (P0DMS8 whole entry Y15A) above, with A15Y, M174A counted along it

Structure (SMILES): Nc1ncnc2c1ncn2[C@@H]1O[C@H](CO)[C@@H](O)[C@H]1O [Adenosine, adenosine]
- remaining activity at 100 µM (Nluc-A3AR V169E^45.53; log[adenosine] -4): 37.3%
- remaining activity at 10 µM (Nluc-A3AR V169E^45.53; log[adenosine] -5): 78.7%
- remaining activity at 1 µM (Nluc-A3AR V169E^45.53; log[adenosine] -6): 98%
- remaining activity at 0.1 µM (Nluc-A3AR V169E^45.53; log[adenosine] -7): 95.5%
- remaining activity at 0.01 µM (Nluc-A3AR V169E^45.53; log[adenosine] -8): 100%
- remaining activity at 10 µM (Nluc-A3AR S73A^2.65; log[adenosine] -5): 82.6%
- remaining activity at 1 µM (Nluc-A3AR S73A^2.65; log[adenosine] -6): 100%
- remaining activity at 0.1 µM (Nluc-A3AR S73A^2.65; log[adenosine] -7): 100%
- remaining activity at 0.01 µM (Nluc-A3AR S73A^2.65; log[adenosine] -8): 100%
- remaining activity at 1000 µM (Nluc-A3AR H95A^3.37; log[adenosine] -3): 24%
- remaining activity at 100 µM (Nluc-A3AR H95A^3.37; log[adenosine] -4): 82.5%
- remaining activity at 10 µM (Nluc-A3AR H95A^3.37; log[adenosine] -5): 97.8%
- remaining activity at 1 µM (Nluc-A3AR H95A^3.37; log[adenosine] -6): 105%
- remaining activity at 0.1 µM (Nluc-A3AR H95A^3.37; log[adenosine] -7): 95.8%
- remaining activity at 0.01 µM (Nluc-A3AR H95A^3.37; log[adenosine] -8): 100%
- remaining activity at 0.01 µM (Nluc-A3AR H95F^3.37): 100%
- remaining activity at 1 µM (Nluc-A3AR T94A^3.36; log[adenosine] -6): 100%
- remaining activity at 0.1 µM (Nluc-A3AR T94A^3.36; log[adenosine] -7): 103%
- remaining activity at 0.01 µM (Nluc-A3AR T94A^3.36; log[adenosine] -8): 100%
- remaining activity at 1 µM (Nluc-A3AR M174A^5.35; log[adenosine] -6): 100%
- remaining activity at 0.01 µM (Nluc-A3AR M174A^5.35; log[adenosine] -8): 101%
- remaining activity at 1000 µM (Nluc-A3AR S271A^7.42; log[adenosine] -3): 90.4%
- remaining activity at 100 µM (Nluc-A3AR S271A^7.42; log[adenosine] -4): 102%
- remaining activity at 10 µM (Nluc-A3AR S271A^7.42; log[adenosine] -5): 100%
- remaining activity at 1 µM (Nluc-A3AR S271A^7.42; log[adenosine] -6): 104%
- remaining activity at 0.1 µM (Nluc-A3AR S271A^7.42; log[adenosine] -7): 105%
- remaining activity at 0.01 µM (Nluc-A3AR S271A^7.42; log[adenosine] -8): 100%
- remaining activity at 100 µM (Nluc-A3AR Y265A^7.36; log[adenosine] -4): 69.6%
- remaining activity at 10 µM (Nluc-A3AR Y265A^7.36; log[adenosine] -5): 94.1%
- remaining activity at 1 µM (Nluc-A3AR Y265A^7.36; log[adenosine] -6): 97.4%
- remaining activity at 0.1 µM (Nluc-A3AR Y265A^7.36; log[adenosine] -7): 99.2%
- remaining activity at 0.01 µM (Nluc-A3AR Y265A^7.36; log[adenosine] -8): 100%
- log τ (efficacy, operational model, corrected for receptor expression) (A3AR H95F^3.37): N.R.
- ∆∆BRET Emax (A3AR H95F^3.37): N.R
- Gαi1 activation response (Figure 7F), individual replicates (A3AR H95F^3.37; log [agonist] -3): 0.03876 and 0.1313 and 0.08684
- Gαi1 activation response (Figure 7F), individual replicates (A3AR H95F^3.37; log [agonist] -4): 0.03491 and 0.05099 and 0.06294
- Gαi1 activation response (Figure 7F), individual replicates (A3AR H95F^3.37; log [agonist] -5): 0.01638 and 0.04515 and 0.03044
- Gαi1 activation response (Figure 7F), individual replicates (A3AR H95F^3.37; log [agonist] -6): 0.01795 and 0.02273 and 0.02037
- Gαi1 activation response (Figure 7F), individual replicates (A3AR H95F^3.37; log [agonist] -7): 0.02917 and 0.01651 and 0.04473
- Gαi1 activation response (Figure 7F), individual replicates (A3AR H95F^3.37; log [agonist] -8): 0.01844 and 0.06153 and 0.04217
- Gαi1 activation response (Figure 7F), individual replicates (A3AR H95F^3.37; log [agonist] -9): 0.02564 and 0.03775 and 0.0773
- remaining activity at 1 µM (Nluc-A3AR WT; log[adenosine] -6): 103%
- remaining activity at 0.1 µM (Nluc-A3AR WT; log[adenosine] -7): 102%
- remaining activity at 0.01 µM (Nluc-A3AR WT; log[adenosine] -8): 100%
- log τ (efficacy, operational model, corrected for receptor expression) (A3AR N250A^6.55): N.R.
- ∆∆BRET Emax (A3AR N250A^6.55): N.R
- Gαi1 activation response (Figure 7F), individual replicates (A3AR N250A^6.55; log [agonist] -3): 0.1982 and 0.05834 and 0.1787
- Gαi1 activation response (Figure 7F), individual replicates (A3AR N250A^6.55; log [agonist] -4): 0.07983 and 0.02674 and 0.09536
- Gαi1 activation response (Figure 7F), individual replicates (A3AR N250A^6.55; log [agonist] -6): 0.1133 and 0.01975
- Gαi1 activation response (Figure 7F), individual replicates (A3AR N250A^6.55; log [agonist] -7): 0.04263 and 0.06697 and 0.05413
- Gαi1 activation response (Figure 7F), individual replicates (A3AR N250A^6.55; log [agonist] -8): 0.04211 and 0.09403 and 0.02948
- Gαi1 activation response (Figure 7F), individual replicates (A3AR N250A^6.55; log [agonist] -9): 0.09604 and 0.06365 and 0.0751
- remaining activity at 0.01 µM (Nluc-A3AR Y15A^1.35): 100%

From paper PMC12361428 (Nature Communications, 2025)
